Measured values as given in PMC11094793, “Discovery of LLC0424 as a Potent and Selective in Vivo NSD2 PROTAC Degrader” (Journal of Medicinal Chemistry, 2024).
Where two headings read alike, the source gives them in different places.

Target: T1, NSD2 (Homo sapiens, UniProt O96028)
T1 sequence (O96028 1-1365): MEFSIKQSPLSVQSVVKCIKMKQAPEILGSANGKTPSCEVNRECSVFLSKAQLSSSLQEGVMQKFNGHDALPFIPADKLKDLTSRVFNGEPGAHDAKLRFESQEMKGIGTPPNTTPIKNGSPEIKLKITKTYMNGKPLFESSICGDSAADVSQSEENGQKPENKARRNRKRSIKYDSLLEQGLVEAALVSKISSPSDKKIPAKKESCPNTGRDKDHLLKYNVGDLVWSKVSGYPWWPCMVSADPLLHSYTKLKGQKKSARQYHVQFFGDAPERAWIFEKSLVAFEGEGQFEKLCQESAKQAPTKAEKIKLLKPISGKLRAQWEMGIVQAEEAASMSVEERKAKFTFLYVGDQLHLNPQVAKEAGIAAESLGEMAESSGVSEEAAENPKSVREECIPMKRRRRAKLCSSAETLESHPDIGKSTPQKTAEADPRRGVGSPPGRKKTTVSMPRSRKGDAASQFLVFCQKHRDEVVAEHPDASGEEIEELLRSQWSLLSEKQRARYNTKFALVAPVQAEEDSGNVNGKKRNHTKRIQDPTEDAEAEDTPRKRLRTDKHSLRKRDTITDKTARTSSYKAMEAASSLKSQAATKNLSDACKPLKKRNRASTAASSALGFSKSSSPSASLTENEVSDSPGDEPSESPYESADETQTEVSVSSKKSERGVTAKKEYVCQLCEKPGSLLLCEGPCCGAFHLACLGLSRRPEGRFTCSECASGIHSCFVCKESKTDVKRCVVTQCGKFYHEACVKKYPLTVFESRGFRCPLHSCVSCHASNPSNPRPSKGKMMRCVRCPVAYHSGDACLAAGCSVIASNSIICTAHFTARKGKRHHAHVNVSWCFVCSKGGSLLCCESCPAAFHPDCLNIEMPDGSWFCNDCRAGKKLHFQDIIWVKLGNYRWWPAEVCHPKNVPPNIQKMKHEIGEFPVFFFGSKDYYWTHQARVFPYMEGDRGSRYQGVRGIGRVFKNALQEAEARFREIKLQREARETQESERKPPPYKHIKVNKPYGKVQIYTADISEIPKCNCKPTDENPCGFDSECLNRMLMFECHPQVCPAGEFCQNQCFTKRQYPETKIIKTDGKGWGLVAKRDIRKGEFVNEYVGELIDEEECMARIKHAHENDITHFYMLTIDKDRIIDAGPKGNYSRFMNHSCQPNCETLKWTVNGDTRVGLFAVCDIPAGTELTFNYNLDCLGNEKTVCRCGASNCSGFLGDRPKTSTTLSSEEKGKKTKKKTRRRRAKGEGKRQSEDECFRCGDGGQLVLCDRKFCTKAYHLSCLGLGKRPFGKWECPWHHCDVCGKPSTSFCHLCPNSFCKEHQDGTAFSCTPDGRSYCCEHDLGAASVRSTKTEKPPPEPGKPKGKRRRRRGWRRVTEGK
Assay: Compound screening: NSD2 degradation by immunoblotting in VCaP cells
Conditions: 24 h; for Dmax at 2 µM: VCaP

[1] = read-out: 2.0 μM Degradation % (VCaP)

Protocol: After treatment, the cultured cells were collected and rinsed with phosphate-buffered saline (PBS) in room temperature. The cells were treated with RIPA buffers (ThermoFisher Scientific) supplemented with Halt Protease and Phosphatase Inhibitor Cocktail (ThermoFisher Scientific). After sonication and centrifugation, the total amount of protein in the cell lysates was measured by Pierce Bovine Serum Albumin Standard Pre-Diluted Set (ThermoFisher Scientific). […] After incubated with HRP-conjugated secondary antibodies, the membranes were developed with ECL Prime Western Blotting Detection Reagent (cytiva) and imaged on Odyssey Fc Imager (LiCOR Biosciences).
Western blot was then performed as previously described to detect NSD2 degradation.

Row | % Degradation (2 μM, VCaP cells, immunoblotting) | Dmax at 2 µM [1] [%] | Dmax at 2 µM (read-out: % Degradation) [%] | Compound
1 | significant potency loss | 48 | 48 | O=C1CCC(N2C(=O)c3ccc(NC4CCN(C(=O)c5ccc(NC(=O)c6ccc(CN(C(=O)c7ccc8c(c7)OCC(=O)N8)C7CC7)cc6)cc5)CC4)cc3C2=O)C(=O)N1 (stereo not shown) [compound 10k, N-Cyclopropyl-N-(4-((4-(4-((2-(2,6-dioxopiperidin-3-yl)-1,3-dioxoisoindolin-5-yl)amino)piperidine-1-carbonyl)phenyl)carbamoyl)benzyl)-3-oxo-3,4-dihydro-2H-benzo[b][1,4]oxazine-7-carboxamide]
2 | – | 90 | 90 | O=C1CCC(N2C(=O)c3ccc(NCCCCCCCCNC(=O)c4ccc(NC(=O)c5ccc(CN(C(=O)c6ccc7c(c6)OCC(=O)N7)C6CC6)cc5)cc4)cc3C2=O)C(=O)N1 (stereo not shown) [10j, N-Cyclopropyl-N-(4-((4-((8-((2-(2,6-dioxopiperidin-3-yl)-1,3-dioxoisoindolin-5-yl)amino)octyl)carbamoyl)phenyl)carbamoyl)benzyl)-3-oxo-3,4-dihydro-2H-benzo[b][1,4]oxazine-7-carboxamide]
3 | – | 3 | 3 | O=C1CCC(N2C(=O)c3ccc(N4CCCC(NC(=O)c5ccc(NC(=O)c6ccc(CN(C(=O)c7ccc8c(c7)OCC(=O)N8)C7CC7)cc6)cc5)C4)cc3C2=O)C(=O)N1 (stereo not shown) [10q, N-Cyclopropyl-N-(4-((4-((1-(2-(2,6-dioxopiperidin-3-yl)-1,3-dioxoisoindolin-5-yl)piperidin-3-yl)carbamoyl)phenyl)carbamoyl)benzyl)-3-oxo-3,4-dihydro-2H-benzo[b][1,4]oxazine-7-carboxamide]
4 | – | 89 | 89 | CN(C(=O)c1ccc(NC(=O)c2ccc(CN(C(=O)c3ccc4c(c3)OCC(=O)N4)C3CC3)cc2)cc1)C1CCN(c2ccc3c(c2)C(=O)N(C2CCC(=O)NC2=O)C3=O)CC1 (stereo not shown) [10o, N-Cyclopropyl-N-(4-((4-((1-(2-(2,6-dioxopiperidin-3-yl)-1,3-dioxoisoindolin-5-yl)piperidin-4-yl)(methyl)carbamoyl)phenyl)carbamoyl)benzyl)-3-oxo-3,4-dihydro-2H-benzo[b][1,4]oxazine-7-carboxamide]
5 | – | 70 | 70 | O=C1CCC(N2C(=O)c3ccc(NCCNC(=O)c4ccc(NC(=O)c5ccc(CN(C(=O)c6ccc7c(c6)OCC(=O)N7)C6CC6)cc5)cc4)cc3C2=O)C(=O)N1 (stereo not shown) [10e, N-cyclopropyl-N-(4-((4-((2-((2-(2,6-dioxopiperidin-3-yl)-1,3-dioxoisoindolin-5-yl)amino)ethyl)carbamoyl)phenyl)carbamoyl)benzyl)-3-oxo-3,4-dihydro-2H-benzo[b][1,4]oxazine-7-carboxamide]
6 | – | 74 | 74 | O=C1CCC(N2C(=O)c3ccc(N4CCC(CNC(=O)c5ccc(NC(=O)c6ccc(CN(C(=O)c7ccc8c(c7)OCC(=O)N8)C7CC7)cc6)cc5)CC4)cc3C2=O)C(=O)N1 (stereo not shown) [10n, N-Cyclopropyl-N-(4-((4-(((1-(2-(2,6-dioxopiperidin-3-yl)-1,3-dioxoisoindolin-5-yl)piperidin-4-yl)methyl)carbamoyl)phenyl)carbamoyl)benzyl)-3-oxo-3,4-dihydro-2H-benzo[b][1,4]oxazine-7-carboxamide]
7 | – | 25 | 25 | O=C1CCC(N2C(=O)c3cccc(NCCCCNC(=O)c4ccc(NC(=O)c5ccc(CN(C(=O)c6ccc7c(c6)OCC(=O)N7)C6CC6)cc5)cc4)c3C2=O)C(=O)N1 (stereo not shown) [compound 10b, N-Cyclopropyl-N-(4-((4-((4-((2-(2,6-dioxopiperidin-3-yl)-1,3-dioxoisoindolin-4-yl)amino)butyl)carbamoyl)phenyl)carbamoyl)benzyl)-3-oxo-3,4-dihydro-2H-benzo[b][1,4]oxazine-7-carboxamide]
8 | – | 83 | 83 | O=C1CCC(N2C(=O)c3ccc(NCCCCCCNC(=O)c4ccc(NC(=O)c5ccc(CN(C(=O)c6ccc7c(c6)OCC(=O)N7)C6CC6)cc5)cc4)cc3C2=O)C(=O)N1 (stereo not shown) [10i, N-Cyclopropyl-N-(4-((4-((6-((2-(2,6-dioxopiperidin-3-yl)-1,3-dioxoisoindolin-5-yl)amino)hexyl)carbamoyl)phenyl)carbamoyl)benzyl)-3-oxo-3,4-dihydro-2H-benzo[b][1,4]oxazine-7-carboxamide]
9 | – | 30 | 30 | CC1(NC(=O)c2ccc(NC(=O)c3ccc(CN(C(=O)c4ccc5c(c4)OCC(=O)N5)C4CC4)cc3)cc2)CCN(c2ccc3c(c2)C(=O)N(C2CCC(=O)NC2=O)C3=O)CC1 (stereo not shown) [10p, N-Cyclopropyl-N-(4-((4-((1-(2-(2,6-dioxopiperidin-3-yl)-1,3-dioxoisoindolin-5-yl)-4-methylpiperidin-4-yl)carbamoyl)phenyl)carbamoyl)benzyl)-3-oxo-3,4-dihydro-2H-benzo[b][1,4]oxazine-7-carboxamide]
10 | – | 94 | 94 | O=C1CCC(N2C(=O)c3ccc(NCCCNC(=O)c4ccc(NC(=O)c5ccc(CN(C(=O)c6ccc7c(c6)OCC(=O)N7)C6CC6)cc5)cc4)cc3C2=O)C(=O)N1 (stereo not shown) [compound 10f, N-Cyclopropyl-N-(4-((4-((3-((2-(2,6-dioxopiperidin-3-yl)-1,3-dioxoisoindolin-5-yl)amino)propyl)carbamoyl)phenyl)carbamoyl)benzyl)-3-oxo-3,4-dihydro-2H-benzo[b][1,4]oxazine-7-carboxamide]
11 | – | 17 | 17 | O=C1CCC(N2C(=O)c3cccc(NCCNC(=O)c4ccc(NC(=O)c5ccc(CN(C(=O)c6ccc7c(c6)OCC(=O)N7)C6CC6)cc5)cc4)c3C2=O)C(=O)N1 (stereo not shown) [compound 10a, N-Cyclopropyl-N-(4-((4-((2-((2-(2,6-dioxopiperidin-3-yl)-1,3-dioxoisoindolin-4-yl)amino)ethyl)carbamoyl)phenyl)carbamoyl)benzyl)-3-oxo-3,4-dihydro-2H-benzo[b][1,4]oxazine-7-carboxamide]
12 | – | 13 | 13 | O=C1CCC(N2C(=O)c3cccc(NCCCCCCCCNC(=O)c4ccc(NC(=O)c5ccc(CN(C(=O)c6ccc7c(c6)OCC(=O)N7)C6CC6)cc5)cc4)c3C2=O)C(=O)N1 (stereo not shown) [10d, N-Cyclopropyl-N-(4-((4-((8-((2-(2,6-dioxopiperidin-3-yl)-1,3-dioxoisoindolin-4-yl)amino)octyl)carbamoyl)phenyl)carbamoyl)benzyl)-3-oxo-3,4-dihydro-2H-benzo[b][1,4]oxazine-7-carboxamide]
13 | – | 80 | 80 | O=C1CCC(N2C(=O)c3ccc(NCCCCCNC(=O)c4ccc(NC(=O)c5ccc(CN(C(=O)c6ccc7c(c6)OCC(=O)N7)C6CC6)cc5)cc4)cc3C2=O)C(=O)N1 (stereo not shown) [10h, N-Cyclopropyl-N-(4-((4-((5-((2-(2,6-dioxopiperidin-3-yl)-1,3-dioxoisoindolin-5-yl)amino)pentyl)carbamoyl)phenyl)carbamoyl)benzyl)-3-oxo-3,4-dihydro-2H-benzo[b][1,4]oxazine-7-carboxamide]
14 | – | 41 | 41 | O=C1CCC(N2C(=O)c3ccc(N4CCN(C(=O)c5ccc(NC(=O)c6ccc(CN(C(=O)c7ccc8c(c7)OCC(=O)N8)C7CC7)cc6)cc5)CC4)cc3C2=O)C(=O)N1 (stereo not shown) [10m, N-Cyclopropyl-N-(4-((4-(4-(2-(2,6-dioxopiperidin-3-yl)-1,3-dioxoisoindolin-5-yl)piperazine-1-carbonyl)phenyl)carbamoyl)benzyl)-3-oxo-3,4-dihydro-2H-benzo[b][1,4]oxazine-7-carboxamide]
15 | – | 92 | 92 | O=C1CCC(N2C(=O)c3ccc(NCCCCNC(=O)c4ccc(NC(=O)c5ccc(CN(C(=O)c6ccc7c(c6)OCC(=O)N7)C6CC6)cc5)cc4)cc3C2=O)C(=O)N1 (stereo not shown) [10g, N-Cyclopropyl-N-(4-((4-((4-((2-(2,6-dioxopiperidin-3-yl)-1,3-dioxoisoindolin-5-yl)amino)butyl)carbamoyl)phenyl)carbamoyl)benzyl)-3-oxo-3,4-dihydro-2H-benzo[b][1,4]oxazine-7-carboxamide]
